# Measured values taken from paper PMC3180999 (Journal of medicinal chemistry, 2010).
# How the values were obtained:
# LNCaP/AR cells = assay: PSA expression readout in LNCaP/AR; assay type: cell-based; conditions: for activity: hormone-refractory LNCaP/AR, Scheme 21; for activity in the hormone refractory LNCaP/AR assay: Schemes 18 and 19; for activity using PSA levels in vitro: hormone refractory cell line LNCaP/AR, Scheme 17
# PSA secretion = assay: relative PSA level / PSA secretion assay, cell line not named; assay type: cell-based; conditions: for relative PSA expression levels: vs bicalutamide and 27 as standards, Scheme 9
# AR [1] = assay: luciferase reporter assay; assay type: cell-based; conditions: for luciferase assay activity: vs 21 and 22 as standards, Scheme 13; for relative luciferase activity: vs bicalutamide and 27 as standards, Scheme 8; for luciferase reporter assay activity: Scheme 14
# AR [2] = assay: activity test, assay not named; assay type: cell-based; conditions: 27 as the standard, Scheme 10
# LAPC4/AR cells = assay: LAPC4/AR xenograft in castrate SCID mice; assay type: in vivo; conditions: 10 mg/kg, pilot experiment, Figure 1
# [3] = pharmacokinetics: serum concentration, steady state concentration
# [4] = vs 21 and 22 as standards, Scheme 13
# [5] = vs 27 and 38 as standards, Scheme 12
smiles,measurement,setting,value
"CNC(=O)c1ccc(N2C(=S)N(c3ccc(C#N)c(C(F)(F)F)c3)C(=O)C23CCCC3)cc1F [compound 93, N-Methyl-4-[3-(4-cyano-3-trifluoromethylphenyl)-4-oxo-2-thioxo-1,3-diazaspiro[4.4]nonan-1-yl]-2-fluorobenzamide]",activity,LNCaP/AR cells,very active
CC/N=C1\N(c2ccc(C#N)c(C(F)(F)F)c2)C(=S)N(c2ccc(C)cc2)C1(C)C [compound 60],relative PSA levels,PSA secretion; [4],somewhat active
same,luciferase assay activity,AR [1],somewhat active
N#Cc1ccc(N2C(=O)C3(CCC3)N(c3ccccc3C(=O)O)C2=S)cc1C(F)(F)F [compound 45],activity,AR [2],inactive
"CN(C)C(=O)CCCc1ccc(N2C(=S)N(c3ccc(C#N)c(C(F)(F)F)c3)C(=O)C23CCC3)cc1 [compound 94, N,N-dimethyl-4-[4-(7-(4-cyano-3-trifluoromethylphenyl)-8-oxo-6-thioxo-5,7-diazaspiro-[3.4]octan-5-yl)phenyl]butanamide]",activity,LNCaP/AR cells,quite good activity compared to earlier compounds
"CCC1(C)C(=O)N(c2ccc(C)cc2)C(=S)N1c1ccc(C#N)c(C(F)(F)F)c1 (stereo not drawn) [compound 36, 4-[3-(4-Methylphenyl)-5-ethyl-5-methyl-4-oxo-2-thioxoimidazolidin-1-yl]-2-trifluoromethylbenzonitrile]",relative luciferase activity,AR [1],reduced activity relative to 27
"CNC(=O)c1ccc(N2C(=S)N(c3ccc(C#N)c(C(F)(F)F)c3)C(=O)C23CCC3)cc1 [compound 89, N-methyl-4-[7-(4-cyano-3-trifluoromethylphenyl)-8-oxo-6-thioxo-5,7-diazaspiro-[3.4]oct-5-yl]benzamide]",activity in the hormone refractory LNCaP/AR assay,LNCaP/AR cells,good activity
"CC(O)(CS(=O)(=O)c1ccc(F)cc1)C(=O)Nc1ccc(C#N)c(C(F)(F)F)c1 (stereo not drawn) [bicalutamide, reference compound]",activity using PSA levels in vitro,LNCaP/AR cells,inactive
Cc1ccc(N2C(=S)N(c3ccc(C#N)c(C(F)(F)F)c3)C(=N)C23CCC3)cc1 [compound 53],relative PSA readout,PSA secretion; [5],nearly as active as the parent compounds 27 and 38
"Cc1ccc(N2C(=S)N(c3ccc(C#N)c(C(F)(F)F)c3)C(=O)C23CCCC3)cc1 [compound 39, 4-(4-Oxo-2-thioxo-1-(4-methylphenyl)-1,3-diazaspiro[4.4]non-3-yl)-2-trifluoromethylbenzonitrile]",relative PSA expression levels,PSA secretion,comparable to the dimethyl analogue 27
Cc1ccccc1N1C(=S)N(c2ccc(C#N)c(C(F)(F)F)c2)C(=O)C12CCC2 [compound 44],activity,AR [2],active
"Cc1ccc(N2C(=S)N(c3ccc(C#N)c(C(F)(F)F)c3)C(=O)C2(C)C)cc1 [compound 27, 4-[3-(4-Methylphenyl)-4,4-dimethyl-5-oxo-2-thioxoimidazolidin-1-yl]-2-trifluoromethylbenzonitrile]",fold change in tumor volume of xenografts,LAPC4/AR cells,more effective than bicalutamide
Cc1ccc(N2/C(=N/c3ccc(C#N)c(C(F)(F)F)c3)S/C(=N\C(=S)Nc3ccc(C#N)c(C(F)(F)F)c3)C23CCC3)cc1 [compound 64],relative PSA levels,PSA secretion; Scheme 14,excellent activity comparable to their parent thiohydantoin analogues 27 and 38
same,luciferase reporter assay activity,AR [1],excellent activity comparable to their parent thiohydantoin analogues 27 and 38
C/N=C1\N(c2ccc(C#N)c(C(F)(F)F)c2)C(=S)N(c2ccc(C)cc2)C12CCC2 [compound 57],relative PSA levels,PSA secretion; [4],somewhat active
same,luciferase assay activity,AR [1],somewhat active
Cc1ccc(N2C(=S)N(c3ccc(C#N)c(C(F)(F)F)c3)C(=O)C2(C)CF)cc1 (stereo not drawn) [compound 47],activity,AR [2],good activity
"CNC(=O)c1ccc(N2C(=S)N(c3ccc(C#N)c(C(F)(F)F)c3)C(=O)C2(C)C)cc1F [compound 92, N-Methyl-4-[3-(4-cyano-3-trifluoromethylphenyl)-5,5-dimethyl-4-oxo-2-thioxoimidazolidin-1-yl]-2-fluorobenzamide]",dose-response study on castration resistant LNCaP AR cells,LNCaP/AR cells; Figure 9,a little more active than 91
same,activity,LNCaP/AR cells,very active
CC1(C)C(=O)N(c2ccc(C#N)c(C(F)(F)F)c2)C(=O)N1c1ccc(O)cc1 [compound 56],relative PSA readout,PSA secretion; [5],not as active as the parent thiohydantoin 28
"CC1(C)C(=O)N(c2ccc(C#N)c(C(F)(F)F)c2)C(=S)N1c1ccc(C(F)(F)F)cc1 [compound 52, 4-(4,4-Dimethyl-5-oxo-2-thioxo-3-(4-trifluoromethylphenyl)imidazolidin-1-yl)-2-trifluoromethylbenzonitrile]",relative PSA readout,"PSA secretion; vs standards, Scheme 11",slightly more active than the methyl analogue 27
"N#Cc1ccc(N2C(=O)C3(CCC3)N(c3ccc(/C=C/C(N)=O)cc3)C2=S)cc1C(F)(F)F [compound 77, (E)-3-{4-[7-(4-cyano-3-trifluoromethylphenyl)-8-oxo-6-thioxo-5,7-diazaspiro[3.4]oct-5-yl]-phenyl}-2-propanamide]",IC50,PSA secretion,100 to 150 nM
"CS(=O)(=O)c1ccc(N2C(=S)N(c3ccc(C#N)c(C(F)(F)F)c3)C(=O)C23CCC3)cc1 [compound 86, 4-[5-(4-Methanesulfonylphenyl)-8-oxo-6-thioxo-5,7-diazaspiro[3.4]oct-7-yl]-2-trifluoromethylbenzonitrile]",activity in the hormone refractory LNCaP/AR assay,LNCaP/AR cells,good activity
"CNC(=O)c1ccc(N2C(=S)N(c3ccc(C#N)c(C(F)(F)F)c3)C(=O)C2(C)C)cc1 [compound 88, 4-[3-(4-Cyano-3-trifluoromethylphenyl)-5,5-dimethyl-4-oxo-2-thioxo-imidazolidin-1-yl]-N-methylbenzamide]",activity in the hormone refractory LNCaP/AR assay,LNCaP/AR cells,good activity
"COC(=O)c1ccc(N2C(=S)N(c3ccc(C#N)c(C(F)(F)F)c3)C(=O)C2(C)C)cc1 [compound 87, 4-[3-(4-Cyano-3-trifluoromethylphenyl)-5,5-dimethyl-4-oxo-2-thioxo-imidazolidin-1-yl]benzoic acid methyl ester]",activity in the hormone refractory LNCaP/AR assay,LNCaP/AR cells,good activity
"N#CCCCc1ccc(N2C(=S)N(c3ccc(C#N)c(C(F)(F)F)c3)C(=O)C23CCC3)cc1 [compound 95, 4-[5-(4-(3-Cyanopropyl)phenyl)-8-oxo-6-thioxo-5,7-diazaspiro[3.4]octan-7-yl]-2-(trifluoromethyl) benzonitrile]",activity,LNCaP/AR cells,quite good activity compared to earlier compounds
CC1(C)C(=S)N(c2ccc(C#N)c(C(F)(F)F)c2)C(=S)N1c1ccc(O)cc1 [compound 55],relative PSA readout,PSA secretion; [5],not as active as the parent thiohydantoin 28
N#Cc1ccc(N2C(=O)C3(CCC3)N(c3ccc(O)cc3F)C2=S)cc1C(F)(F)F [compound 90],activity in the hormone refractory LNCaP/AR assay,LNCaP/AR cells,good activity
"N#Cc1ccc(N2C(=O)C3(CCC3)N(c3ccc(O)cc3)C2=S)cc1C(F)(F)F [compound 49, 4-(8-Oxo-6-thioxo-5-(4-hydroxyphenyl)-5,7-diazaspiro[3.4]oct-7-yl)-2-trifluoromethylbenzonitrile]",relative PSA readout,"PSA secretion; vs standards, Scheme 11",very similar in activity to 38
N#Cc1ccc(N2C(=O)C3(CCC3)N(c3ccc(-c4ccccc4)cc3)C2=S)cc1C(F)(F)F [compound 48],relative PSA readout,"PSA secretion; vs standards, Scheme 11",very similar in activity to 38
Cc1ccc(N2C(=S)N(c3ccc(C#N)c(C(F)(F)F)c3)C(=O)C2(CCl)CCl)cc1 [compound 46],activity,AR [2],decreased activity
Cc1ccc(N2C(=S)N(c3ccc(C#N)c(C(F)(F)F)c3)C(=N)C2(C)C)cc1 [compound 54],relative PSA readout,PSA secretion; [5],nearly as active as the parent compounds 27 and 38
"CCC1(CC)C(=O)N(c2ccc(C)cc2)C(=S)N1c1ccc(C#N)c(C(F)(F)F)c1 [compound 37, 4-[3-(4-Methylphenyl)-5,5-diethyl-4-oxo-2-thioxoimidazolidin-1-yl]-2-trifluoromethylbenzonitrile]",relative luciferase activity,AR [1],reduced activity relative to 27
"Cc1ccc(N2C(=S)N(c3ccc(C#N)c(C(F)(F)F)c3)C(=O)C23CCN(C)CC3)cc1 [compound 43, 4-(8-Methyl-4-oxo-2-thioxo-1-(4-methylphenyl)-1,3,8-triazaspiro[4.5]dec-3-yl)-2-trifluoromethylbenzonitrile]",relative PSA expression levels,PSA secretion,distinctly less active
"CC(O)c1ccc(N2C(=S)N(c3ccc(C#N)c(C(F)(F)F)c3)C(=O)C23CCC3)cc1 (stereo not drawn) [compound 76, 4-{5-[4-(1-Hydroxyethyl)phenyl]-8-oxo-6-thioxo-5,7-diazaspiro[3.4]oct-7-yl}-2-trifluoromethylbenzonitrile]",IC50,PSA secretion,200 to 300 nM
"N#Cc1ccc(N2C(=O)C3(CCC3)N(c3ccc(/C=C/CO)cc3)C2=S)cc1C(F)(F)F [compound 78, (E)-4-{5-[4-(3-Hydroxy-1-propenyl)phenyl]-8-oxo-6-thioxo-5,7-diazaspiro[3.4]oct-7-yl}-2-trifluoromethylbenzonitrile]",IC50,PSA secretion,100 to 150 nM
"N#Cc1ccc(N2C(=O)C3(CCC3)N(c3ccc(C=O)cc3)C2=S)cc1C(F)(F)F [compound 75, 4-[5-(4-Formylphenyl)-8-oxo-6-thioxo-5,7-diazaspiro[3.4]oct-7-yl]-2-trifluoromethylbenzonitrile]",IC50,PSA secretion,200 to 300 nM
Cc1ccc(N2/C(=N/c3ccc(C#N)c(C(F)(F)F)c3)S/C(=N\C(=S)Nc3ccc(C#N)c(C(F)(F)F)c3)C2(C)C)cc1 [compound 63],relative PSA levels,PSA secretion; Scheme 14,excellent activity comparable to their parent thiohydantoin analogues 27 and 38
same,luciferase reporter assay activity,AR [1],excellent activity comparable to their parent thiohydantoin analogues 27 and 38
"CNC(=O)CCCc1ccc(N2C(=S)N(c3ccc(C#N)c(C(F)(F)F)c3)C(=O)C23CCC3)cc1 [compound 80, N-Methyl-4-{4-[7-(4-cyano-3-trifluoromethylphenyl)-8-oxo-6-thioxo-5,7-diaza-spiro[3.4]-oct-5-yl]phenyl}butanamide]",PK (serum concentration curve),[3]; Figure 4,poor
same,metabolism seen,"[3]; mouse, in vivo",hydrolysis of the N-methyl amide to the acid was seen
same,activity using PSA levels in vitro,LNCaP/AR cells,most active compound
